# Values quoted from earlier work in US20160220687A1, “METALLOPROTEINASE-CLEAVABLE ALPHA-AMANITIN-DENDRIMER CONJUGATES AND METHOD OF TREATING CANCER” (priority 2015, published 2016).
# What was measured:
# [1] = tested on: MCF7 breast cancer cells
# [2] = tested on: advanced gastric cancer; settings: patients with advanced gastric cancer, compared to placebo
# [3] = tested on: liver and kidney; settings: intravenous or intraperitoneal administration
# [4] = tested on: B16F10 melanoma cells; settings: mice injected with B16F10 melanoma cells
compound,measurement,setting,value
N#Cc1ccc(C(c2ccc(C#N)cc2)n2cncn2)cc1 [Letrozole],MMP2 and MMP9 levels,[1],efficient reduction
CNC(=O)[C@@H](NC(=O)[C@H](CC(C)C)[C@H](O)C(=O)NO)C(C)(C)C [Marimastat],disease free survival,[2],significant improvement
same,overall survival,[2],significant improvement
CC[C@H](C)[C@@H]1NC(=O)CNC(=O)[C@@H]2Cc3c([nH]c4cc(O)ccc34)[S@+]([O-])C[C@H](NC(=O)CNC1=O)C(=O)N[C@@H](CC(N)=O)C(=O)N1C[C@H](O)C[C@H]1C(=O)N[C@@H]([C@@H](C)[C@@H](O)CO)C(=O)N2 [alpha-amanitin],pathological effects on the liver and kidney,[3],serious pathological effects on the liver and kidney
TIMP1: an inhibitor of MMP9,number of pulmonary metastases,[4],reduced
